The text below walks through data of patent publication US20070112176A1, “Lipid membrane structure containing anti-mt-mmp monoclonal antibody” (DAIICHI PHARMACEUTICAL CO., LTD., priority 2003, published 2007).

Molecules are shown by their SMILES.

The subject of this experiment is HT1080 cells. In words: Cytostatic test of liposomes with various antibody binding ratios, Test Example 6. Type of experiment: cell-based, human. The following applies: control group; free DOX 100 μg/mL, used as start value. The protocol: According to the method described in Test Example 2-1), the cytostatic ability of various antibody-binding liposomes was evaluated by using the HT1080 cells. The cells were adhered to a 96-well plate, then added with anti-MT1-MMP monoclonal antibody (clone number: 222-1D8)-binding and anticancer agent-encapsulating liposomes (Fab′(222-1D8)-DOX-LP), and cultured for 1 hour. After the culture, the cells were washed, added with a fresh medium, and further cultured for 24 hours. After the cells were washed and cultured for 24 hours, a cell counting assay was performed, and A450 serving as an index of viable cell count was plotted. Means±S.D. (n=4) was indicated for each group. As control, only the medium (control), anticancer agent-encapsulating liposomes not bound with antibody (DOX-LP (Preparation Example (11)) or the anticancer agent alone (free DOX) was added instead of Fab′(222-1D8)-DOX-LP. A group in which only the medium was similarly treated without adding the cells was used as a blank. It was confirmed by multiple times of experiments that the start value used in the calculation of inhibitory rate and the like in Test Example 2 was not substantially different from the absorbance obtained with 100 μg/mL of DOX alone (free DOX) used as the sample, and therefore the value obtained for the 100 μg/mL free DOX group was used as the start value. […]

As to `COc1cccc2c1C(=O)c1c(O)c3c(c(O)c1C2=O)C[C@@](O)(C(=O)CO)C[C@@H]3O[C@H]1C[C@H](N)[C@H](O)[C@H](C)O1` [Free DOX, doxorubicin], the “Cytostatic ratio for HT1080 cells” value worked out at 100%.
